ChEMBL document CHEMBL5338824 (J Med Chem, 2023)
Active and inactive are the calls of the source. No cut-off for these calls is given here.

Legend:
[1] = molecular target: T1, Protein cereblon/Bromodomain-containing protein 2 (Homo sapiens, UniProt P25440+Q96SW2); details: MV4-11, dose 0.1-1000 nM, time 4.0 hrs
Target sequence in this assay (P25440 whole entry, looked up): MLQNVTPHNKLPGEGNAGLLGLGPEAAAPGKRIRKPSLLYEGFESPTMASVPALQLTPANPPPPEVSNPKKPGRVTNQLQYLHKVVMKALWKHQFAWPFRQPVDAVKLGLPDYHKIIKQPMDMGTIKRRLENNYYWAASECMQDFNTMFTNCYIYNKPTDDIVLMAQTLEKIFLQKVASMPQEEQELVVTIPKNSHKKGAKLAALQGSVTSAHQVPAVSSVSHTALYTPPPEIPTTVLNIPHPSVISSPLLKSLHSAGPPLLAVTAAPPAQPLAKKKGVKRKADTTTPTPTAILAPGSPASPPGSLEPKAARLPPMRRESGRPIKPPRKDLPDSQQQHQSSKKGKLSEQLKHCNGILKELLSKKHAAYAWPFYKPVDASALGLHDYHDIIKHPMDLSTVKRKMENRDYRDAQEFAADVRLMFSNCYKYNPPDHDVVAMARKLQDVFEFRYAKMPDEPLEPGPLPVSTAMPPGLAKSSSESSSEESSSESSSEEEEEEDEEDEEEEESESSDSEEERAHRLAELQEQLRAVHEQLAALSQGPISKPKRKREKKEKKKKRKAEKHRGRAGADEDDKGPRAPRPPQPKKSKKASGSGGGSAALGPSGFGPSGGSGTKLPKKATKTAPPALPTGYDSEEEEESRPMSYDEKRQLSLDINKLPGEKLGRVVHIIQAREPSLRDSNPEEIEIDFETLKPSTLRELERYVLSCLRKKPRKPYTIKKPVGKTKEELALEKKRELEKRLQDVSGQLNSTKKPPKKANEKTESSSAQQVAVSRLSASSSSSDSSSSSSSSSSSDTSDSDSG
Target sequence in this assay (Q96SW2 whole entry, looked up): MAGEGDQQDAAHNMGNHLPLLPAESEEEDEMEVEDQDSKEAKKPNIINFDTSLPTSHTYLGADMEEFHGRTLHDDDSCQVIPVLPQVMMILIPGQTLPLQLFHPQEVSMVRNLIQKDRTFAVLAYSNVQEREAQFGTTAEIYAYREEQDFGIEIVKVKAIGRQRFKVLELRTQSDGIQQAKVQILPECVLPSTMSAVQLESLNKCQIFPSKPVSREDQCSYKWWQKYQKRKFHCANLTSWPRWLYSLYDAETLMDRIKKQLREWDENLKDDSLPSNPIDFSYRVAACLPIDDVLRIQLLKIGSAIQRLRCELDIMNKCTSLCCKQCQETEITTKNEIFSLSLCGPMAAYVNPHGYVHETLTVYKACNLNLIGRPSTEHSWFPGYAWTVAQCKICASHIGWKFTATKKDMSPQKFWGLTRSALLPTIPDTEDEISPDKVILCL

[2] = molecular target: T2, Protein cereblon/Bromodomain-containing protein 3 (Homo sapiens, UniProt Q15059+Q96SW2); details: MV4-11, dose 0.1-1000 nM, time 4.0 hrs
Target sequence in this assay (Q15059 2-726 limits assumed): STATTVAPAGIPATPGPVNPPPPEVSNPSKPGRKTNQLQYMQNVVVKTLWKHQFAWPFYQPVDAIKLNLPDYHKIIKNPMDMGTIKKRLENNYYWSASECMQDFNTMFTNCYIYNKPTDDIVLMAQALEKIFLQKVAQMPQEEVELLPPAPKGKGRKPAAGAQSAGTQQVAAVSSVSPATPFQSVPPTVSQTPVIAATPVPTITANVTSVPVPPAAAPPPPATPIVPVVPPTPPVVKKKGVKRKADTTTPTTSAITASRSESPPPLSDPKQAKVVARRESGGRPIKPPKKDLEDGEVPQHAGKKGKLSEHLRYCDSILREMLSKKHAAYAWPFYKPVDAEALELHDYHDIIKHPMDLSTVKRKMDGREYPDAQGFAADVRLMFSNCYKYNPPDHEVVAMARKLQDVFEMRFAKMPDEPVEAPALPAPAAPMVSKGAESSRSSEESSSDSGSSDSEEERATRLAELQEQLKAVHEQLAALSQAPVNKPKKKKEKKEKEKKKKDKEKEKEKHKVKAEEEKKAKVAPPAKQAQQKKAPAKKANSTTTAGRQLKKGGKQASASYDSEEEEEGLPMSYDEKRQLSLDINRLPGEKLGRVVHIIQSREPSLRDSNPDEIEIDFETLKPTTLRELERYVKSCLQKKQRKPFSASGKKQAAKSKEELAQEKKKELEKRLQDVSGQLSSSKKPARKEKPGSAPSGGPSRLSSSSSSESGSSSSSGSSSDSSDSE
Target sequence in this assay (Q96SW2 whole entry partner): as the sequence (Q96SW2 whole entry, looked up) above

MOLM-13 = test: Antiproliferative activity against human MOLM-13 cells assessed as cell growth inhibition incubated for 4 days by WST-8 assay; format: functional, cell-based; details: MOLM-13, 96 h
[3] = Toxicity in SCID mouse xenografted with human MV4-11 cells assessed as body weight loss at 20 mg/kg,ip qd administrated 5 days per week for 4 weeks; format: organism-based; details: in vivo, 672 h, time 28 day
[4] = molecular target: T1, Protein cereblon/Bromodomain-containing protein 2; details: HL-60, dose 0.1-1000 nM, time 4.0 hrs
Target sequence in this assay (P25440 whole entry, looked up): as the sequence (P25440 whole entry, looked up) above
Target sequence in this assay (Q96SW2 whole entry, looked up): as the sequence (Q96SW2 whole entry, looked up) above

[5] = molecular target: T2, Protein cereblon/Bromodomain-containing protein 3; details: MDA-MB-231, dose 0.1-1000 nM, time 4.0 hrs
Target sequence in this assay (Q15059 2-726 limits assumed): as the sequence (Q15059 2-726 limits assumed) above
Target sequence in this assay (Q96SW2 whole entry partner): as the sequence (Q96SW2 whole entry, looked up) above

[6] = Toxicity in SCID mouse xenografted with human MDA-MB-231 cells assessed as toxic signs at 20 mg/kg,ip qd administrated 5 days per week for 4 weeks; format: organism-based; details: in vivo, 672 h, time 28 day
[7] = molecular target: T1, Protein cereblon/Bromodomain-containing protein 2; details: RS4-11, dose 0.1-1000 nM, time 4.0 hrs
Target sequence in this assay (P25440 whole entry, looked up): as the sequence (P25440 whole entry, looked up) above
Target sequence in this assay (Q96SW2 whole entry, looked up): as the sequence (Q96SW2 whole entry, looked up) above

[8] = molecular target: T2, Protein cereblon/Bromodomain-containing protein 3; details: T47D, dose 0.1-1000 nM, time 4.0 hrs
Target sequence in this assay (Q15059 2-726 limits assumed): as the sequence (Q15059 2-726 limits assumed) above
Target sequence in this assay (Q96SW2 whole entry partner): as the sequence (Q96SW2 whole entry, looked up) above

[9] = Toxicity in SCID mouse xenografted with human MV4-11 cells assessed as toxic signs at 20 mg/kg,ip qd administrated 5 days per week for 4 weeks; format: organism-based; details: in vivo, 672 h, time 28 day
[10] = molecular target: T2, Protein cereblon/Bromodomain-containing protein 3; details: MOLM-13, dose 0.1-1000 nM, time 4.0 hrs
Target sequence in this assay (Q15059 2-726 limits assumed): as the sequence (Q15059 2-726 limits assumed) above
Target sequence in this assay (Q96SW2 whole entry partner): as the sequence (Q96SW2 whole entry, looked up) above

[11] = Toxicity in SCID mouse xenografted with human MDA-MB-231 cells assessed as body weight loss at 20 mg/kg,ip qd administrated 5 days per week for 4 weeks; format: organism-based; details: in vivo, 672 h, time 28 day
[12] = molecular target: T1, Protein cereblon/Bromodomain-containing protein 2; details: MOLM-13, dose 0.1-1000 nM, time 4.0 hrs
Target sequence in this assay (P25440 whole entry, looked up): as the sequence (P25440 whole entry, looked up) above
Target sequence in this assay (Q96SW2 whole entry, looked up): as the sequence (Q96SW2 whole entry, looked up) above

[13] = molecular target: T1, Protein cereblon/Bromodomain-containing protein 2; details: T47D, dose 0.1-1000 nM, time 4.0 hrs
Target sequence in this assay (P25440 whole entry, looked up): as the sequence (P25440 whole entry, looked up) above
Target sequence in this assay (Q96SW2 whole entry, looked up): as the sequence (Q96SW2 whole entry, looked up) above

[14] = molecular target: T2, Protein cereblon/Bromodomain-containing protein 3; details: RS4-11, dose 0.1-1000 nM, time 4.0 hrs
Target sequence in this assay (Q15059 2-726 limits assumed): as the sequence (Q15059 2-726 limits assumed) above
Target sequence in this assay (Q96SW2 whole entry partner): as the sequence (Q96SW2 whole entry, looked up) above

MDA-MB-231 [15] = test: Antiproliferative activity against human MDA-MB-231 cells assessed as cell growth inhibition incubated for 4 days by WST-8 assay; format: functional, cell-based; details: MDA-MB-231, 96 h
MV4-11 [16] = test: Antiproliferative activity against human MV4-11 cells assessed as cell growth inhibition incubated for 4 days by WST-8 assay; format: functional, cell-based; details: MV4-11, 96 h
[17] = molecular target: T1, Protein cereblon/Bromodomain-containing protein 2; details: MDA-MB-231, dose 0.1-1000 nM, time 4.0 hrs
Target sequence in this assay (P25440 whole entry, looked up): as the sequence (P25440 whole entry, looked up) above
Target sequence in this assay (Q96SW2 whole entry, looked up): as the sequence (Q96SW2 whole entry, looked up) above

[18] = molecular target: T2, Protein cereblon/Bromodomain-containing protein 3; details: HL-60, dose 0.1-1000 nM, time 4.0 hrs
Target sequence in this assay (Q15059 2-726 limits assumed): as the sequence (Q15059 2-726 limits assumed) above
Target sequence in this assay (Q96SW2 whole entry partner): as the sequence (Q96SW2 whole entry, looked up) above

[19] = molecular target: T1, Protein cereblon/Bromodomain-containing protein 2; details: MDA-MB-453, dose 0.1-1000 nM, time 4.0 hrs
MV4-11 [20] = test: Antitumor activity against human MV4-11 cells xenografted in SCID mouse assessed as inhibition of tumor growth at 20 mg/kg,ip qd administrated and measured after 1 week; format: functional; details: MV4-11, 168 h, time 1 weeks
MCF7 = test: Antiproliferative activity against human MCF7 cells assessed as cell growth inhibition incubated for 4 days by WST-8 assay; format: functional, cell-based; details: MCF7, 96 h
MV4-11 [21] = test: Antitumor activity against human MV4-11 cells xenografted in SCID mouse assessed as decrease in tumor growth at 20 mg/kg,ip qd administrated and measured after 48 hrs; format: functional, organism-based
RS4-11 = test: Antiproliferative activity against human RS4-11 cells assessed as cell growth inhibition incubated for 4 days by WST-8 assay; format: functional, cell-based; details: RS4-11, 96 h
[22] = molecular target: T1, Protein cereblon/Bromodomain-containing protein 2; details: MCF7, dose 0.1-1000 nM, time 4.0 hrs
[23] = molecular target: T2, Protein cereblon/Bromodomain-containing protein 3; details: MCF7, dose 0.1-1000 nM, time 4.0 hrs
T47D = test: Antiproliferative activity against human T47D cells assessed as cell growth inhibition incubated for 4 days by WST-8 assay; format: functional, cell-based; details: 96 h
HL-60 = test: Antiproliferative activity against human HL-60 cells assessed as cell growth inhibition incubated for 4 days by WST-8 assay; format: functional, cell-based; details: HL-60, 96 h
MDA-MB-453 = test: Antiproliferative activity against human MDA-MB-453 cells assessed as cell growth inhibition incubated for 4 days by WST-8 assay; format: functional, cell-based; details: MDA-MB-453, 96 h
[24] = molecular target: T2, Protein cereblon/Bromodomain-containing protein 3; details: MDA-MB-453, dose 0.1-1000 nM, time 4.0 hrs
[25] = molecular target: T2, Protein cereblon/Bromodomain-containing protein 3; test: In vivo protac activity at CRBN/BRD3 in human MV4-11 cells xenografted in SCID mouse assessed as degradation of BRD3 protein at 20 mg/kg,ip administrated and measured at 3 to 48 hrs by Western blotting analysis; format: functional, organism-based; details: time lower 3.0 hrs, time upper […]
[26] = molecular target: T1, Protein cereblon/Bromodomain-containing protein 2; test: In vivo protac activity at CRBN/BRD2 in human MV4-11 cells xenografted in SCID mouse assessed as degradation of BRD2 protein at 20 mg/kg,ip administrated and measured at 3 to 48 hrs by Western blotting analysis; format: functional, organism-based; details: time lower 3.0 hrs, time upper […]
MV4-11 [27] = test: Antitumor activity against human MV4-11 cells xenografted in SCID mouse assessed as inhibition of tumor growth at 20 mg/kg,ip qd administrated 5 days per week for 4 weeks; format: functional; details: MV4-11, 672 h, time 28 day
MDA-MB-231 [28] = test: Antitumor activity against human MDA-MB-231 cells xenografted in SCID mouse assessed as inhibition of tumor growth at 20 mg/kg,ip qd administrated 5 days per week for 4 weeks; format: functional; details: MDA-MB-231, 672 h, time 28 day
[29] = molecular target: T1, Protein cereblon/Bromodomain-containing protein 2; test: PROTAC activity at CRBN/BRD2 in human MV4-11 cells assessed as degradation of BRD2 protein level incubated for 4 hrs by Western blotting assay; format: cell-based
Target sequence in this assay (P25440 whole entry): as the sequence (P25440 whole entry, looked up) above
Target sequence in this assay (Q96SW2 whole entry): as the sequence (Q96SW2 whole entry, looked up) above

[30] = molecular target: T2, Protein cereblon/Bromodomain-containing protein 3; test: PROTAC activity at CRBN/BRD3 in human MV4-11 cells assessed as degradation of BRD3 protein level incubated for 4 hrs by Western blotting assay; format: cell-based
Target sequence in this assay (Q15059 whole entry): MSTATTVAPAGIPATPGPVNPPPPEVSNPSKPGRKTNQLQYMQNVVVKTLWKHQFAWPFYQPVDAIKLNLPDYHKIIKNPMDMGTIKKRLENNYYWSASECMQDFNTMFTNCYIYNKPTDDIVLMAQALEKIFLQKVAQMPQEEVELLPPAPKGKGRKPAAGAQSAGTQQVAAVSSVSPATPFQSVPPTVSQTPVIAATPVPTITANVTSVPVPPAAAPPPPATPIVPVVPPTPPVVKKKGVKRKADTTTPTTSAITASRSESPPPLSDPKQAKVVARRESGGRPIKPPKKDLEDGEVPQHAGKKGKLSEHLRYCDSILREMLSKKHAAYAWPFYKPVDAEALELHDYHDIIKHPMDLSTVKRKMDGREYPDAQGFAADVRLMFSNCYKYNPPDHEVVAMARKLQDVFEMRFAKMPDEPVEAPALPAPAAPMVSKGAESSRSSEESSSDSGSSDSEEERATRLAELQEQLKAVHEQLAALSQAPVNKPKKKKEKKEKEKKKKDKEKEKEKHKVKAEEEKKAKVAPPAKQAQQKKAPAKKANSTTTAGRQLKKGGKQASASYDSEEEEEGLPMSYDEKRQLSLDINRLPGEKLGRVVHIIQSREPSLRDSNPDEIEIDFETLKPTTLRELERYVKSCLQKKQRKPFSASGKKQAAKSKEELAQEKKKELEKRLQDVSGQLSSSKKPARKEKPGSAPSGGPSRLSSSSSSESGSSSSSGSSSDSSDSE
Target sequence in this assay (Q96SW2 whole entry): as the sequence (Q96SW2 whole entry, looked up) above

[31] = molecular target: T3, Protein cereblon/Bromodomain-containing protein 4 (Homo sapiens, UniProt O60885+Q96SW2); test: PROTAC activity at CRBN/BRD4 in human MV4-11 cells assessed as degradation of BRD4 protein level incubated for 4 hrs by Western blotting assay; format: cell-based
T3 sequence (Q96SW2 whole entry, looked up, other chains not shown): as the sequence (Q96SW2 whole entry, looked up) above

[32] = molecular target: T3, Protein cereblon/Bromodomain-containing protein 4; details: MV4-11, dose 0.1-1000 nM, time 4.0 hrs

| Emax [1] | Emax [2] | IC50 (MOLM-13) | IC50 (MDA-MB-231 [15]) | IC50 (MV4-11 [16]) | IC50 (MCF7) | IC50 (RS4-11) | IC50 (T47D) | IC50 (HL-60) | IC50 (MDA-MB-453) | SMILES | Emax [4] | Emax [5] | Emax [7] | Emax [8] | Emax [10] | Emax [12] | Emax [13] | Emax [14] | Emax [17] | Emax [18] | also measured |
| --- | --- | --- | --- | --- | --- | --- | --- | --- | --- | --- | --- | --- | --- | --- | --- | --- | --- | --- | --- | --- | --- |
| 0% | 0% | 212 nM | 151 nM | 149 nM | 804 nM | 186 nM | 623 nM | 113 nM | 689 nM | Cc1nnc2n1-c1sc(C#Cc3cnn(C)c3)c(Cc3ccccc3)c1COC2 | – | – | – | – | – | – | – | – | – | – | Activity [25]: inactive; Activity [26]: inactive; inhibition in vivo at 20 mg/kg (MV4-11 [27]): 63%; inhibition in vivo at 20 mg/kg (MDA-MB-231 [28]): 49% |
| 0% | 0% | 25 nM | 15.9 nM | 17 nM | 37.8 nM | 6.4 nM | 3.3 nM | 4.9 nM | 59.9 nM | Cc1nnc2n1-c1sc(C#Cc3cnn(C4CN(c5cccc6c5C(=O)N(C5CCC(=O)NC5=O)C6=O)C4)c3)c(Cc3ccccc3)c1COC2 (stereo unspecified) | 10% | 19% | < 10% | 22% | 13% | 27% | 0% | 6% | 0% | 18% | Emax [19]: 18%; Emax [22]: 0%; Emax [23]: 34%; Emax [24]: 5% |

Second part, the compound before the results:

| SMILES | Emax [1] | Emax [2] | IC50 (MOLM-13) | IC50 (MDA-MB-231 [15]) | IC50 (MV4-11 [16]) | IC50 (MCF7) | IC50 (RS4-11) | IC50 (T47D) | IC50 (HL-60) | IC50 (MDA-MB-453) | Emax [4] | Emax [5] | Emax [7] | Emax [8] | Emax [10] | Emax [12] | Emax [13] | Emax [14] | Emax [17] | Emax [18] | also measured |
| --- | --- | --- | --- | --- | --- | --- | --- | --- | --- | --- | --- | --- | --- | --- | --- | --- | --- | --- | --- | --- | --- |
| Cc1nnc2n1-c1sc(C#Cc3cnn(C4CCN(c5cccc6c5C(=O)N(C5CCC(=O)NC5=O)C6=O)CC4)c3)c(Cc3ccccc3)c1COC2 (stereo unspecified) | 68% | 56% | – | – | – | – | – | – | – | – | – | – | – | – | – | – | – | – | – | – | – |
| Cc1nnc2n1-c1sc(C#Cc3cnn(C4(CCN5CCN(C)CC5)CN(c5cccc6c5C(=O)N(C5CCC(=O)NC5=O)C6=O)C4)c3)c(Cc3ccccc3)c1COC2 (stereo unspecified) | 0% | 0% | 69 nM | 17.6 nM | 11 nM | 38.4 nM | 4.6 nM | 3.8 nM | 5.1 nM | 80.9 nM | 18% | 0% | 15% | 25% | 9% | 0% | 6% | 15% | 0% | 10% | Activity [3]: Non-Toxic; Activity [6]: Non-Toxic; Activity [9]: Non-Toxic; Activity [11]: Non-Toxic; Emax [19]: 0%; inhibition in vivo at 20 mg/kg (MV4-11 [20]): 56%; Activity (MV4-11 [21]): Active; Emax [22]: 11%; Emax [23]: 0%; Emax [24]: 14% |
| Cc1nnc2n1-c1sc(C#Cc3cnn(C4CN(c5cccc6c5C(=O)N(C5CCC(=O)N(C)C5=O)C6=O)C4)c3)c(Cc3ccccc3)c1COC2 (stereo unspecified) | 5% | 12% | – | – | – | – | – | – | – | – | – | – | – | – | – | – | – | – | – | – | DC50 [29]: > 1000 nM; DC50 [30]: > 1000 nM; DC50 [31]: > 1000 nM; Emax [32]: 2% |
